Reference: ChEMBL document CHEMBL1201862, “PubChem BioAssay data set” (2004)
Active and inactive are the calls of the source.

Assays:
[1] = cells; type: functional
[2] = THP-1 cell cytotoxicity, dose response, cytotoxicity control for non-replicating M. tuberculosis project (AID 489025); type: functional
[3] = Vero E6 cell cytotoxicity, dose response, cytotoxicity control for non-replicating M. tuberculosis project, secondary assay (AID 492998); type: functional, VeroE6; settings: Vero C1008
[4] = HepG2 cell cytotoxicity, dose response, cytotoxicity control for non-replicating M. tuberculosis project (AID 489018); type: functional; settings: Mycobacterium tuberculosis
[5] = Luminescence Cell-Based Dose Retest to Confirm Inhibitors of Cancer Stem Cells. [Related pubchem assays (depositor defined):AID2717, AID2721]; type: functional; settings: Homo sapiens
[6] = target: T1, Ubiquitin-conjugating enzyme E2 N (Homo sapiens, UniProt P61088); type: functional;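 note: Dose-response confirmation in a TR-FRET assay detecting UBC13-driven polyubiquitin chain formation, inhibition measured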
T1 sequence (P61088 whole entry): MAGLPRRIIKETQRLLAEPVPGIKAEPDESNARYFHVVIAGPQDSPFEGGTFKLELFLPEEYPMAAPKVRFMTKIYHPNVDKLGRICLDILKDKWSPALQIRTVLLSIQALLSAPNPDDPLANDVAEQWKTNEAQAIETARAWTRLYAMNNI

[7] = target: T2, Alkaline phosphatase, tissue-nonspecific isozyme (Homo sapiens, UniProt P05186); assay: potency against alkaline phosphatase TNAP – biochemical, luminescent, dose response, SAR follow-up (AID 1056)
T2 sequence (P05186 whole entry): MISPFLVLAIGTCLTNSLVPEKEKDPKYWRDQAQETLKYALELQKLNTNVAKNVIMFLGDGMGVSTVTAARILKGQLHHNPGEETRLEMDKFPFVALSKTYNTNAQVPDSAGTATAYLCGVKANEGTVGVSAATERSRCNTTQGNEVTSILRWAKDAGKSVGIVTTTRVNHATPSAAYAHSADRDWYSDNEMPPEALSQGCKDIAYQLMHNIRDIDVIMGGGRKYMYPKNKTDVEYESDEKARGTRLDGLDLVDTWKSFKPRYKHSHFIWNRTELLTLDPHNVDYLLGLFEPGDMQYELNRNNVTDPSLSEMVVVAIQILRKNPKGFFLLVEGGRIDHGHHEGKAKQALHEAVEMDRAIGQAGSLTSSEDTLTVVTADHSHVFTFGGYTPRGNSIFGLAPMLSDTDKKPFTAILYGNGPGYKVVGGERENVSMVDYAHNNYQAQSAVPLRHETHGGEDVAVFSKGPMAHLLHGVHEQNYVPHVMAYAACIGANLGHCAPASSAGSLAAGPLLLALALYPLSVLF

[8] = target: Glyceraldehyde-3-phosphate dehydrogenase (Homo sapiens, UniProt P04406)
[9] = target: Luciferin 4-monooxygenase (Photinus pyralis, UniProt P08659); assay: Counter Screen for Luciferase-based Assay Positives. [Related pubchem assays: 620, 618, 411 ]
[10] = system: HT-1080; assay: HT1080 cell viability loss – fluorescence readout (AID 620); type: functional, cell-based; settings: Homo sapiens
[11] = Trypanosoma cruzi growth suppression in host cells – NIH3T3 host cells, beta-gal luminescence, confirmation (AID 2044); type: functional, cell-based;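 note: intracellular parasites grown in NIH/3T3 mouse fibroblasts as host cells; luminescent beta-galactosidase reporter signal from transgenic T. cruzi replicating inside host cells; inhibitors lower the luminescence signal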
[12] = system: INS1; assay: INS-1E survival protection against cytokine death – cell-based, luminescence, retest, dose response (AID 449756); type: functional; settings: Rattus norvegicus;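 note: cell death triggered by IL-1 beta plus TNF-alpha plus IFN-gamma mixture; protective hits raise ATP signal compared with cytokine alone wells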
[13] = system: Vero; assay: cells; type: functional; settings: Chlorocebus sabaeus
[14] = system: Vero; assay: cells; type: functional, cell-based; settings: Chlorocebus sabaeus
[15] = NIH3T3 cell viability loss – ATP luminescence, mouse fibroblasts, counter-screen, dose response (AID 2010); type: functional, cell-based;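 note: cells exposed to compound for about 90 hours before reading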
[16] = target: G-protein coupled receptor 55 (Homo sapiens, UniProt Q9Y2T6); assay: selective activators of receptor GPR55 – imaging, U2OS cells, beta-arrestin-GFP redistribution, primary screen (AID 1961); type: functional
[17] = target: Hexokinase (Trypanosoma brucei, UniProt Q38C41); assay: Confirmation assay for inhibitors of Trypanosoma brucei hexokinase 1-Analogue-first series. [Related pubchem assays (depositor defined):AID1430, AID1632, AID2516, AID2560, AID2579, AID2600, AID449725, AID492951]; type: functional
[18] = target: DNA damage-inducible transcript 3 protein (Mus musculus, UniProt P35639); type: functional, Cricetulus griseus
[19] = target: X-box-binding protein 1 (Homo sapiens, UniProt P17861); type: functional, Cricetulus griseus;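 note: confirmatory dose-response counter-screen serving a CHOP assay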
[20] = target: T3, Type-1 angiotensin II receptor (Homo sapiens, UniProt P30556); assay: agonist activity at AGTR1 – cell-based, uHTS hits, selectivity assay for APJ receptor agonist project, dose response (AID 488865); type: functional;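 note: beta-arrestin recruitment to AT1 measured by enzyme fragment complementation luminescence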
T3 sequence (P30556 whole entry): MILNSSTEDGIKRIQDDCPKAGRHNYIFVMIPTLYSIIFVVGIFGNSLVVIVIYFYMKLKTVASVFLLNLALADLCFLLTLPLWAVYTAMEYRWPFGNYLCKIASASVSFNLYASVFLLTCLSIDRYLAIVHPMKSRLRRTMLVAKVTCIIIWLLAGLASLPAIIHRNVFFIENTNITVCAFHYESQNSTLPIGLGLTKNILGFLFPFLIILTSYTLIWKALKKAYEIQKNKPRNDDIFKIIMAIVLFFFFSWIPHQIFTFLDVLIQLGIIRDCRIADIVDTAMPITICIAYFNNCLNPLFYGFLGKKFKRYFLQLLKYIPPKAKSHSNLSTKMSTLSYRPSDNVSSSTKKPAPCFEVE

[21] = target: Cytochrome P450 2C9 (Homo sapiens, UniProt P11712)
[22] = viability of uninfected HEp-2 cells – cell-based, HTS, cytotoxicity control for RSV inhibitor project, dose response (AID 2410); type: functional; settings: human respiratory syncytial virus
[23] = target: NS3 (Hepatitis C virus, UniProt A3EZJ3); assay: PubChem AID 2173; parameters: species or system Hepacivirus hominis
[24] = target: Large T antigen (Simian virus 40, UniProt P03070); type: functional, Betapolyomavirus macacae;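 note: Confirmatory-stage PubChem screen for compounds that inhibit SV40 T antigen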
[25] = target: T4, Heat shock factor protein 1 (Mus musculus, UniProt P38532); assay: enhancement of HSF1-driven luciferase signal – cell-based, NIH3T3, luminescence, dose retest, confirmation (AID 435004); type: functional;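 note: stress induced by proteasome inhibitor MG132 added 30 min after compound; luciferase reporter driven by HSF1 response element in NIH3T3 cells; actives raise luminescence as potentiators of the MG132 stress response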
T4 sequence (P38532 whole entry): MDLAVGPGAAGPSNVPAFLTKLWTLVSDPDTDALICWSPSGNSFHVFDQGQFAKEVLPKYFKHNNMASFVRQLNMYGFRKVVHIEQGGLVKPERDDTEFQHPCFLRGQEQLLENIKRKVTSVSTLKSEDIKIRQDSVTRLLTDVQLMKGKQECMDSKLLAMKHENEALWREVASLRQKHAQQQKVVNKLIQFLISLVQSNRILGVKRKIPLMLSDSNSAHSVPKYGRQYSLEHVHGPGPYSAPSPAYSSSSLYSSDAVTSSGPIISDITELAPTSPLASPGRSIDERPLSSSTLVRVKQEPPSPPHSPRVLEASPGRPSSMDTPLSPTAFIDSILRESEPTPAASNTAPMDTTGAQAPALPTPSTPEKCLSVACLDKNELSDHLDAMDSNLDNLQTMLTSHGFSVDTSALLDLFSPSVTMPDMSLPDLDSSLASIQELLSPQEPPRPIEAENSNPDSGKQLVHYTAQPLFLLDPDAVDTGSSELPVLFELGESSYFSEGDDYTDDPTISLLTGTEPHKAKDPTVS

[26] = target: T5, Replicative DNA helicase DnaB (Mycobacterium tuberculosis, UniProt P9WMR3); assay: DnaB intein splicing inhibitors, dose response, biochemical, cell-free fluorescence (AID 449749); type: functional
T5 sequence (P9WMR3 whole entry): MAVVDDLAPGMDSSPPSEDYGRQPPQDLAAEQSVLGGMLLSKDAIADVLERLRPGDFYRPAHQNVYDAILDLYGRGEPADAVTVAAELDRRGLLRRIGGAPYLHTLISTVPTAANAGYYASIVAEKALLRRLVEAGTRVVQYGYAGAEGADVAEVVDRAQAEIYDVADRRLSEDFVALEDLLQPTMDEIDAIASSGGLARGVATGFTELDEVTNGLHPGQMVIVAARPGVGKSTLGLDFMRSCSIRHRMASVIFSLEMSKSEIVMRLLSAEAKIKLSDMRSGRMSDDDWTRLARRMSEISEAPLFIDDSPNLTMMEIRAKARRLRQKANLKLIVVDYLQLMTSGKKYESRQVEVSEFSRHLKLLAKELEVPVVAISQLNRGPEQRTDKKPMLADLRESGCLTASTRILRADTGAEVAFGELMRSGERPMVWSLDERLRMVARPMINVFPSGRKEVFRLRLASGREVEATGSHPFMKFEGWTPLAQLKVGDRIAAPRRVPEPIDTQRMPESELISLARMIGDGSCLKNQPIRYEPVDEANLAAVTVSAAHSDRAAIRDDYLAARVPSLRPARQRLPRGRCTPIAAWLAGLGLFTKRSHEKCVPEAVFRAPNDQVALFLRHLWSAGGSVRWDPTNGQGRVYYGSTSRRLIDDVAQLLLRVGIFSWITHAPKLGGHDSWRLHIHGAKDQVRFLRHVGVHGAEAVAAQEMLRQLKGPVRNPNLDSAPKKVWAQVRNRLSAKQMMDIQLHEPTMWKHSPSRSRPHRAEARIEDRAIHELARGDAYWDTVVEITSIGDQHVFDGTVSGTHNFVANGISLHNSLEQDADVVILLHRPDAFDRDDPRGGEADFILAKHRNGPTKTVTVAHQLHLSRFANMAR

[27] = target: T6, Protein RecA (Mycobacterium tuberculosis, UniProt P9WHJ3); assay: Fluorescence Cell-Free Homogeneous Dose Retest to Identify Inhibitors of RecA-Intein Splicing Activity. [Related pubchem assays (depositor defined):AID2097, AID2223, AID489010, AID492950]; type: functional
T6 sequence (P9WHJ3 whole entry): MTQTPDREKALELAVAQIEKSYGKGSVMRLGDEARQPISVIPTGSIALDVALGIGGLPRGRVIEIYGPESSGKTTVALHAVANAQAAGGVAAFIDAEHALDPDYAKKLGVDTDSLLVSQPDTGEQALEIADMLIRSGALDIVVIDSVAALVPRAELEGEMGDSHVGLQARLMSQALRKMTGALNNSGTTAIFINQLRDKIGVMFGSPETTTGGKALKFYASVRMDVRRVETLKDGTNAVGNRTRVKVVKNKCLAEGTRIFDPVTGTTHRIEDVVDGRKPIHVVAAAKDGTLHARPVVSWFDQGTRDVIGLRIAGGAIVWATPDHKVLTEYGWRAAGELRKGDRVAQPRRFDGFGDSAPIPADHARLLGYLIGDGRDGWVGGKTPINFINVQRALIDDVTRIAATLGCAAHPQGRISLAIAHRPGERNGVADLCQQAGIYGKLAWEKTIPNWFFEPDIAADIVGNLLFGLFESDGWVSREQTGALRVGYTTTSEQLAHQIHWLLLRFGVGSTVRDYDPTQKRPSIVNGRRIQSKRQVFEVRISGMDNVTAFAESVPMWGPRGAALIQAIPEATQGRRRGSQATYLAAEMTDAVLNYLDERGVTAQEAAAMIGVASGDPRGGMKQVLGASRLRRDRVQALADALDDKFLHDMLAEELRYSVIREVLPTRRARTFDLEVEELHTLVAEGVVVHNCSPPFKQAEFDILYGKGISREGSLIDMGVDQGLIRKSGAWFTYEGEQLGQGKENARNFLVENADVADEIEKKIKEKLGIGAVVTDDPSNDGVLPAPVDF

[28] = target: CAAX prenyl protease 2 (Saccharomyces cerevisiae S288c, UniProt Q03530); type: biochemical
Sequence of CAAX prenyl protease 2 (Q03530 whole entry): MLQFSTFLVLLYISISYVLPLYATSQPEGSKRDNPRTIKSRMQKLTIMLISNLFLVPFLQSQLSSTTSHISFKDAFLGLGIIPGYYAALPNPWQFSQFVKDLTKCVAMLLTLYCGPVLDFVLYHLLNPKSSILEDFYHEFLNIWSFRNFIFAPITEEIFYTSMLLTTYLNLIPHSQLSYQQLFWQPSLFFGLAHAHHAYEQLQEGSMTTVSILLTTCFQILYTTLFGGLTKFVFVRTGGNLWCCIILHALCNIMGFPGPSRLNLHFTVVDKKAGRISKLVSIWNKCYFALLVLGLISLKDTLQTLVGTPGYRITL

Sequence of DNA damage-inducible transcript 3 protein (P35639 whole entry): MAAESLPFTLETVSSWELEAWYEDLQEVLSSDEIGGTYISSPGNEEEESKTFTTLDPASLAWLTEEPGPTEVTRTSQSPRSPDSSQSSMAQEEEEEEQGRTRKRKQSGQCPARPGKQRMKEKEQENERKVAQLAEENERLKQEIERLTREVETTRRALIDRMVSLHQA
Sequence of G-protein coupled receptor 55 (Q9Y2T6 whole entry): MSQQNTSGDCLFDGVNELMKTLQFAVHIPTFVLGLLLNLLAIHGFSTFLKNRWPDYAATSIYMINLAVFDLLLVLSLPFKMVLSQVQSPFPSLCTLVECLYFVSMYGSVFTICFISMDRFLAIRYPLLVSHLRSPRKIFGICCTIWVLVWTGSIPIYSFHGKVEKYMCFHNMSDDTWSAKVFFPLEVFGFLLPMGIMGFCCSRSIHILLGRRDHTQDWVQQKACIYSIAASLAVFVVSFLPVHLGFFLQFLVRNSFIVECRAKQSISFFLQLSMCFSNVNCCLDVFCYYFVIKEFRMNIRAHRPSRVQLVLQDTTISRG
Sequence of Hexokinase (Q38C41 whole entry): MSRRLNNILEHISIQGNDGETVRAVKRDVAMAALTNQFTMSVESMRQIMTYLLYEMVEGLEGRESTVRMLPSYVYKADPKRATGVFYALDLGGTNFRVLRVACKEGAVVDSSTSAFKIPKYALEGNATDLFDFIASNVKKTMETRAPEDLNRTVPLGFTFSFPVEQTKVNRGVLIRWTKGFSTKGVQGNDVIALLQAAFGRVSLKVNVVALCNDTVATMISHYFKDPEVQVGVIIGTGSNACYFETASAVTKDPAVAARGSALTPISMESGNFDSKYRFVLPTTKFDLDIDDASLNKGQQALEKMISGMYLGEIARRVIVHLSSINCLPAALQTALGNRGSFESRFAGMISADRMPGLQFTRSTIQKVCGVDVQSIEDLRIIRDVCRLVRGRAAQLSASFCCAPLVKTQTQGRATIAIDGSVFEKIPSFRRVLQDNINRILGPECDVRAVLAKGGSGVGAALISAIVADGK
Sequence of Large T antigen (P03070 whole entry): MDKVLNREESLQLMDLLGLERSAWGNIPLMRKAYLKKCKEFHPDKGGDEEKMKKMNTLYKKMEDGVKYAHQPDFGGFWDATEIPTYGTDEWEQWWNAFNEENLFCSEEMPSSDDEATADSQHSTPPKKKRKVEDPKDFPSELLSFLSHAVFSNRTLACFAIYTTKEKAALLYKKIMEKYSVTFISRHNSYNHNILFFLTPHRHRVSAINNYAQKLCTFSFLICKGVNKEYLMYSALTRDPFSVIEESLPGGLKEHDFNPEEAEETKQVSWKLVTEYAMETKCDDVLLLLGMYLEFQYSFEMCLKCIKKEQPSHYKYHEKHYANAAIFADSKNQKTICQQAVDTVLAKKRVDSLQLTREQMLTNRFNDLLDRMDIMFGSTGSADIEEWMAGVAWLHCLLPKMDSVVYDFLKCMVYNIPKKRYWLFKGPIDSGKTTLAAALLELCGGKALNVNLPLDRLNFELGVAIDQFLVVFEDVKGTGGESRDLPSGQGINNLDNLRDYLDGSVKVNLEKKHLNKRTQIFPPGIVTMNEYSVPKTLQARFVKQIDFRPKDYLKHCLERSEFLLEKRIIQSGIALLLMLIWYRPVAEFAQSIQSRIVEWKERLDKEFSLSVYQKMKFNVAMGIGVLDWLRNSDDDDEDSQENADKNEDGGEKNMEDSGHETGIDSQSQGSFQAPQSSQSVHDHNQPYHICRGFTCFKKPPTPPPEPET
Sequence of NS3 (A3EZJ3 whole entry): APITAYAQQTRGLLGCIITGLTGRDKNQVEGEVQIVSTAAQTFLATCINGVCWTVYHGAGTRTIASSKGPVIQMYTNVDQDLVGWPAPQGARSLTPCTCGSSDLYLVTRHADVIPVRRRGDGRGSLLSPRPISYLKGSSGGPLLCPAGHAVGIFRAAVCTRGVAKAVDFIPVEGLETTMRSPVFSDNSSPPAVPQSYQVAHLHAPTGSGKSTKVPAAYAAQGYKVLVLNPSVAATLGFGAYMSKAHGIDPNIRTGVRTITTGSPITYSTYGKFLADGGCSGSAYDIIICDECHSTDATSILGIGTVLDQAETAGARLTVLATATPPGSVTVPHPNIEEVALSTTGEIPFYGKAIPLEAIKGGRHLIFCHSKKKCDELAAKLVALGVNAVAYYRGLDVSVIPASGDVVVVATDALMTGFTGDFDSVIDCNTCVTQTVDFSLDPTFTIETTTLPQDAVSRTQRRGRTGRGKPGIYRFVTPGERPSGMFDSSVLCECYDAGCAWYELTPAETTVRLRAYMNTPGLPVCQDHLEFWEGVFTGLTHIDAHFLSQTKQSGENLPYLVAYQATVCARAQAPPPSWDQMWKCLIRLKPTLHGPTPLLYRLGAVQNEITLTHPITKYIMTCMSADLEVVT
Sequence of Luciferin 4-monooxygenase (P08659 whole entry): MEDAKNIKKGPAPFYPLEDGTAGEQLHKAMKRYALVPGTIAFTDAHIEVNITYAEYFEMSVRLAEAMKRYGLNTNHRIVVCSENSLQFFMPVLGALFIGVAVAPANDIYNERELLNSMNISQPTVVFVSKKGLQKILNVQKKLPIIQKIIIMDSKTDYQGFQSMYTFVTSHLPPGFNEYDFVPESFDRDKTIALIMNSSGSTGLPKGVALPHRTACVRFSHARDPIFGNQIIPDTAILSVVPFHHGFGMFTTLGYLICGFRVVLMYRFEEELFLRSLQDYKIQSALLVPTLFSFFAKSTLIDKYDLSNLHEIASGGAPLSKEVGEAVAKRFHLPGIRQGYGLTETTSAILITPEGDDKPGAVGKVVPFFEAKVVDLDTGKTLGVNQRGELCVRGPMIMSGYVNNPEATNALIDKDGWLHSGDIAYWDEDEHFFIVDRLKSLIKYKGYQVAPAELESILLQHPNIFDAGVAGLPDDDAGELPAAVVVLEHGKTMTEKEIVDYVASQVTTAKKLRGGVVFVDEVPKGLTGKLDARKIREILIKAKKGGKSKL
Sequence of Cytochrome P450 2C9 (P11712 whole entry): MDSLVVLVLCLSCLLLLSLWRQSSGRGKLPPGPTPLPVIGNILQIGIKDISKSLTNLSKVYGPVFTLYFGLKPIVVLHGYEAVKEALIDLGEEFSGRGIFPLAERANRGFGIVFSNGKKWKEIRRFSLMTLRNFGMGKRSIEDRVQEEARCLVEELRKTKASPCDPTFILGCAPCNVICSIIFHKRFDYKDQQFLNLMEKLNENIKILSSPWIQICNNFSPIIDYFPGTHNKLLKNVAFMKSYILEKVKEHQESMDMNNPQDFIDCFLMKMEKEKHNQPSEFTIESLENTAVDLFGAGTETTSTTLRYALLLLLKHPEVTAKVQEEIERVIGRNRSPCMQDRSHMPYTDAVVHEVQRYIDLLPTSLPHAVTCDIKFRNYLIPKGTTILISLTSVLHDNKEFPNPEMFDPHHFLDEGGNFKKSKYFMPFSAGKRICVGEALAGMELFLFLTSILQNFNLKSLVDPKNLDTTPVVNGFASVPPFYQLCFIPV
Sequence of Glyceraldehyde-3-phosphate dehydrogenase (P04406 whole entry): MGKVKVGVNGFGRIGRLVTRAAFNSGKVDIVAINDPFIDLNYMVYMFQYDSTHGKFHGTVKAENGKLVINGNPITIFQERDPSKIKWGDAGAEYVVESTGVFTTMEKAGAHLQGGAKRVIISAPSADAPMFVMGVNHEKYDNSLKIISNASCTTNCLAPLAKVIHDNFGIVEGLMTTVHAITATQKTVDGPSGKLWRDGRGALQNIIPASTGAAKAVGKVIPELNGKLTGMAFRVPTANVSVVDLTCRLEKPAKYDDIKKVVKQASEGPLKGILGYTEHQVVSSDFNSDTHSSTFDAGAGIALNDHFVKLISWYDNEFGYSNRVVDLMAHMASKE
Sequence of X-box-binding protein 1 (P17861 whole entry, the tested form may be a part): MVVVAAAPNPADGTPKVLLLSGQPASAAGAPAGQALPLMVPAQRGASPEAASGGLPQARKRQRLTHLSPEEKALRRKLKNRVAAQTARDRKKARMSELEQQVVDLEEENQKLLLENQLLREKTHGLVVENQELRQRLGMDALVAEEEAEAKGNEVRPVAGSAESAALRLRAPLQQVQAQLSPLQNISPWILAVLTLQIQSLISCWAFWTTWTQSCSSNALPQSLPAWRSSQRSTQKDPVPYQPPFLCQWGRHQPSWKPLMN

c1ccc(C[C@H]2CNCCN2CCCCC2CCCCC2)cc1
IC50 [1]: 27.4 µM (active)
CC50 [2]: 13.9 µM (active)
CC50 [3]: 18.1 µM (active)
CC50 [4]: 12.2 µM (active)
AC50 [5]: 7.01 µM (active)
IC50 [6]: > 20 µM (inactive)

COC(=O)c1cc(-c2ccc(Cl)c(Cl)c2Cl)n[nH]1
IC50 [7]: 0.24 µM (active)
IC50 [8]: > 10 µM (inconclusive)

Oc1ccc(Cl)cc1C1=NNC(c2cccs2)C1 (configuration not stated)
IC50 [1]: 44.6 µM (active)
CC50 [2]: 22.6 µM (active)
CC50 [3]: > 20 µM (active)
CC50 [4]: > 20 µM (active)

CCOC(=O)/C(=C\c1ccccc1)C(=O)c1cc(C(C)=O)c(Nc2ccccc2)s1
EC50 [9]: < 0.2 µM (active)
EC50 [10]: 20.3 µM (active)
EC50 [11]: 2.35 µM (active)
AC50 [12]: 5.42 µM (active)
CC50 [13]: 14.8 µM (active)
IC50 [14]: > 25 µM (active)
EC50 [15]: 6.8 µM (active)
EC50 [16]: 1.06 µM (active)

O=c1s[nH]c2ccccc12
IC50 [17]: > 25 µM (inactive)

CCc1nc(NCC(C)C)c(C#N)c2c1COC(C)(C)C2
Absolute IC50 (CHOP) [18]: 10 µM
Absolute IC50 (XBP1) [19]: 10 µM

COc1cc2c(cc1NC(=O)c1cc(-c3cccnc3)nc3ccc(C)cc13)oc1ccccc12
EC50 [20]: > 100 µM (inactive)
AC50 [21]: 2.51 µM (inconclusive)

Cc1ccc(N2C(=O)NC(=O)/C(=C\C=C\c3ccco3)C2=O)cc1C
CC50 [22]: > 50 µM (active)
IC50 [23]: 14.4 µM (not active)
IC50 [24]: 16.4 µM (active)
AC50 [12]: 4.83 µM (active)
Absolute IC50 (CHOP) [18]: 10 µM
EC50 [25]: 4.85 µM (active)

CCOC(=O)c1c(NC(=S)N2CCCCC2)sc2c1CCN(C(=O)OCC)C2
AC50 [26]: 3.64 µM (active)
EC50 [27]: 12.7 µM (active)
EC50 [25]: 12.3 µM (active)
EC50 [16]: 5.41 µM (active)

O=C(O)CCc1ccc(-c2cccs2)n1Cc1ccco1
AC50 [28]: 2.57 µM (active)

COc1ccc(C(=O)O)c(NC(=O)c2ccc(Cl)cc2)c1
IC50 [17]: > 25 µM (inactive)
